| Structure (SMILES) | melting point |
| --- | --- |
| N#Cc1ccc(C(=O)NN)cc1 | 195 to 197 °C |
| O=C(CCOc1ccccc1)NO | 138 to 140 °C |
| CC(C)(C)OC(=O)N1CCC(N2CC(O)C2)CC1 | 91 to 93 °C |
| Cn1c(=O)c2c(n(Cc3ccccc3)c1=O)NC(=O)C2CC(=O)O (configuration not stated) | 243 to 247 °C |
| Nc1ccn(Cc2cccnc2)n1 | 88 to 90 °C |
| Cn1cc(COc2ccc(O)cc2)cn1 | 186 to 188 °C |
| O=C(O)C1CC1c1ccc(OC(F)(F)F)cc1 (configuration not stated) | 96 to 98 °C |
| CCOC(=O)c1ncn(-c2ccccc2)n1 | 49 to 51 °C |
| CC(=O)c1ccc(-c2ccc(C=O)o2)cc1 | 133 to 135 °C |
| OCc1cn(-c2ccccc2Cl)nn1 | 87 to 89 °C |
| Cc1nc(COc2ccc(Cl)cc2)sc1C(=O)O | 239 to 241 °C |
| Cc1noc(-c2ccc(N)c(Cl)c2)n1 | 141 to 143 °C |
| Cc1cc(N)cc2[nH]ncc12 | 179 to 181 °C |
| CCC1(C)NC(=O)N(CCCN)C1=O (configuration not stated) | 63 to 65 °C |
| O=C1NCCCN2CCCC12 (configuration not stated) | 120 to 122 °C |
| CSc1ccc(C#N)cc1N | 42 to 44 °C |
| CC1(C)OC(=O)C(C(=O)C2CCCC2)C(=O)O1 | 63 to 65 °C |

| Structure (SMILES) | melting point |
| --- | --- |
| O=C(O)Cn1ccc(C(F)(F)F)n1 | 58 to 64 °C |
| O=S1(=O)CCCN1c1ccccc1Br | 115 to 117 °C |
| O=S(=O)(CCCl)c1ccc(Br)cc1 | 110 to 112 °C |
| CC(C)Oc1cccc(C(O)CN)c1 (configuration not stated) | 52 to 54 °C |
| CNc1ncc(C(=O)O)s1 | 159 to 161 °C |
| Nc1ccccc1C(=O)N1CCCCC1 | 79 to 83 °C |
| CC(C)(C)OC(=O)NC1CC1(F)F (configuration not stated) | 73 to 75 °C |
| Ic1n[nH]c2ccsc12 | 174 to 176 °C |
| Clc1ccc2c(c1)NCCS2 | 110 to 112 °C |
| CC(C)CN(CC(C)C)C(=O)CC(=O)N(CC(C)C)CC(C)C | 51 to 53 °C |
| O=[N+]([O-])c1ccccc1OCC1CO1 (configuration not stated) | 52 to 54 °C |
| Nc1nnc(-c2cccc3ccccc23)o1 | 184 to 186 °C |
| Cc1sc2nc(CC#N)[nH]c(=O)c2c1C | 283 to 285 °C |
| N#Cc1c(F)cccc1-n1ccc(N)n1 | 134 to 136 °C |
| N#CCNC(=O)CN1CCC(=O)CC1 | 124 to 126 °C |
| O=C(CCc1ccccc1)Cc1ccccc1 | 41 to 43 °C |

Other lines, results leading:

| melting point | Structure (SMILES) |
| --- | --- |
| 202 to 204 °C | COc1ccc(/C=C/C(=O)O)cc1S(=O)(=O)NC(C)C |
| 70 to 72 °C | CNS(=O)(=O)c1c(C)noc1C |
| 66 to 68 °C | CCOc1ccc([N+](=O)[O-])cc1C=O |
| 93 to 97 °C | CCc1ccc(OCC(=O)O)cc1 |
| 249 to 251 °C | CN(C)S(=O)(=O)c1ccc(C(=O)O)cc1 |
| 71 to 73 °C | Cc1cccc(CNC(=O)CCl)c1 |
| 283 to 285 °C | O=C(O)c1cc2cc(Br)ccc2[nH]1 |
| 143 to 145 °C | CS(=O)(=O)Nc1cc(Br)ccc1F |
| 141 to 143 °C | CNCc1ccc(OC)c(O)c1 |
| 91 to 93 °C | CC(C)CCNS(=O)(=O)c1ccc(Cl)nc1 |
| 60 to 62 °C | CC(N)c1ccc(S(C)(=O)=O)c(F)c1 (configuration not stated) |
| 256 to 258 °C | Cc1ccccc1NS(=O)(=O)c1ccc(C(=O)O)cc1 |
| 214 to 216 °C | Cc1[nH]c(C(=O)O)c(C)c1S(N)(=O)=O |
| 115 to 117 °C | CC(Cl)C(=O)Nc1cccc([N+](=O)[O-])c1 (configuration not stated) |
| 189 to 191 °C | O=C(O)C=CC(=O)Nc1ccc(F)c(Cl)c1 |
| 40 to 42 °C | CCCS(=O)(=O)NC(C(=O)OCC)C(=O)OCC |
| 89 to 91 °C | O=C(O)C1CC1c1ccc(F)c(F)c1 (configuration not stated) |
| 190 to 192 °C | COc1ccc(N)cc1OCc1cn2ccccc2n1 |
| 157 to 159 °C | O=C(O)c1cccc(S(=O)(=O)N2CCCC2)c1 |
| 134 to 136 °C | N#CCS(=O)(=O)c1cc(Br)ccc1Br |
| 148 to 150 °C | O=C(O)c1cccc(F)c1I |
| 96 to 98 °C | Cc1ccc(N)c(C)c1S(=O)(=O)NC1CC1 |
| 71 to 73 °C | Cc1ccc(C(=O)NCCN)cc1F |
| 86 to 90 °C | O=C(O)CCCCCNS(=O)(=O)c1ccc2c(c1)OCCO2 |

Reference: a melting point compilation (Tetko et al.)
